For orientation: IC50 means the point on the concentration scale where inhibition reaches its midpoint. Lower therefore signals greater potency in that assay.

Each structure is given as a SMILES string. Calls of active or inactive are those of the source. No cut-off for these calls is given here.

The subject of data set [1] is HepG2. The data set is described as follows: cells. It counts as functional, cell-based. The note with it: Homo sapiens, HepG2, 48 h.
Data set [2] can be described thus: Cytotoxicity human L02 cells after 48 hrs by WST-8 based CCK8 assay. It counts as cell-based. The note with it: L02, 48 h. In general terms: Tetrazolium dyes change colour on reduction, which living cells bring about.
The target in data set [3] is Transforming protein RhoA (Homo sapiens) (UniProt P61586). Kind of data set: Inhibition of RhoA activation in human HepG2 cells assessed as decrease of membrane-associated protein level at 10 uM after 24 hrs by Western blot analysis. It counts as cell-based. For orientation: Immunoblotting shows a protein as a band on a membrane.
Transforming protein RhoA (Homo sapiens), sequence (P61586 whole entry): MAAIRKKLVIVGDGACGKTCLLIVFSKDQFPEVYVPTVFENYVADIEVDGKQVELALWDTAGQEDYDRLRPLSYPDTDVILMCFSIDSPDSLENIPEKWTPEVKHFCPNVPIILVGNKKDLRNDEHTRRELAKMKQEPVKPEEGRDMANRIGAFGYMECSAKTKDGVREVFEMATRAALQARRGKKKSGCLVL
The target in data set [4] is Protein kinase C delta type (Homo sapiens) (UniProt Q05655). The settings on record: HepG2, 10 uM.
Protein kinase C delta type (Homo sapiens), sequence (Q05655 whole entry, looked up): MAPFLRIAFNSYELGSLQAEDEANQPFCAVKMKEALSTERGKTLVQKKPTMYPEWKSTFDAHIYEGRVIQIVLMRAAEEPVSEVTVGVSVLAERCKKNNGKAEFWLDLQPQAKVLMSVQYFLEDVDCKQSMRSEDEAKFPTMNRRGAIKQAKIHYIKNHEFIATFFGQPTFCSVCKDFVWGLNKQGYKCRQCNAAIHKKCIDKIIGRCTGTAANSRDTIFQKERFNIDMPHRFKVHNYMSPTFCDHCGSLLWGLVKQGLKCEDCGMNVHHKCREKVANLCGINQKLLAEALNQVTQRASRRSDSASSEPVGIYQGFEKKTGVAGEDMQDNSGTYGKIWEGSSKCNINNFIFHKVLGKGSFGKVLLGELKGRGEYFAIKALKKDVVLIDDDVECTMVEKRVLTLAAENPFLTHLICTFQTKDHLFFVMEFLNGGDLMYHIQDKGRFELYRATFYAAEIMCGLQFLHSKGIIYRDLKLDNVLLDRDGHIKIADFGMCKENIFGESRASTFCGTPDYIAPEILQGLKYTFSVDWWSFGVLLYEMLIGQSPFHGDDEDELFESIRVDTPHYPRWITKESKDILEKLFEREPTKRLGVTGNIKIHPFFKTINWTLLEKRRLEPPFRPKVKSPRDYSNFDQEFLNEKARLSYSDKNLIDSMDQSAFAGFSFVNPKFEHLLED
Description: Inhibition of PKCdelta phosphorylation at Ser643 in human HepG2 cells at 10 uM after 1 hr by Western blot analysis
For data set [5], the system named is HepG2. The data set is described as follows: Growth inhibition of human HepG2 cells at 4 uM after 24 to 72 hrs by WST-8 based CCK8 assay. It counts as functional, cell-based.
Data set [6] concerns HepG2. Kind of data set: Growth inhibition of human HepG2 cells at 16 uM after 24 to 72 hrs by WST-8 based CCK8 assay. It counts as functional, cell-based.
In another data set the test system is HeLa. Kind of data set: Growth inhibition human HeLa cells after 48 hrs by WST-8 based CCK8 assay. It counts as functional, cell-based.
The test system of a further data set is T98G. The data set is described as follows: Growth inhibition human T98G cells after 48 hrs by WST-8 based CCK8 assay. It counts as cell-based.
The nature of data set [7]: Growth inhibition human CNE2 cells after 48 hrs by WST-8 based CCK8 assay. It counts as functional, cell-based. The note with it: CNE-2, 48 h.
The test system of the next data set is MDA-MB-231. Kind of data set: Growth inhibition human MDA-MB-231 cells after 48 hrs by WST-8 based CCK8 assay. It counts as functional, cell-based. The note with it: MDA-MB-231, 48 h.
Data set [8] has as its system HepG2. Kind of data set: Cytotoxicity against human HepG2 cells assessed as increase in cells with filamentous protrusions at 16 uM after 24 hrs using […] staining by confocal microscopy. It counts as functional, cell-based.
Data set [9] concerns the target Transforming protein RhoA (Homo sapiens) (UniProt P61586). The data set is described as follows: Inhibition of RhoA activation in human HepG2 cells assessed as decrease of membrane-associated protein level at 16 uM after 24 hrs by Western blot analysis. It counts as cell-based.
For data set [10] the target is unchanged. The data set is described as follows: Inhibition of RhoA activation in human L02 cells assessed as decrease of membrane-associated protein level at 16 uM after 24 hrs by Western blot analysis. It counts as cell-based.
Data set [11] concerns HepG2. The data set is described as follows: Induction of apoptosis in human HepG2 cells at 16 uM after 24 hrs using propidium iodide staining by flow cytometry. It counts as functional, cell-based. A general note: Flow cytometry measures light scatter and fluorescence of single cells or particles in a stream.
Data set [12] deals with HepG2. The data set is described as follows: Cell cycle arrest in human HepG2 cells assessed as accumulation at G0/G1 phase at 16 uM after 24 hrs using propidium iodide staining by flow cytometry (reference value: 71.5 %). It counts as functional.
Data set [13] concerns HepG2. Kind of data set: Cell cycle arrest in human HepG2 cells assessed as accumulation at S phase at 16 uM after 24 hrs using propidium iodide staining by flow cytometry (reference value: 21.6 %). It counts as functional.
For data set [14], the system named is HepG2. The data set is described as follows: Cell cycle arrest in human HepG2 cells assessed as accumulation at G2/M phase at 16 uM after 24 hrs using propidium iodide staining by flow cytometry (reference value: 6.9 %). It counts as functional.
Data set [15] has as its system HepG2. The data set is described as follows: Cell cycle arrest in human HepG2 cells assessed as decrease in Chk1 protein level in nucleus at 16 uM after 24 hrs by Western blot analysis. It counts as functional, cell-based.
In data set [16] the test system is HepG2. Kind of data set: Cell cycle arrest in human HepG2 cells assessed as increase in cytoplasmic Chk1 protein level at 16 uM after 24 hrs by Western blot analysis. It counts as functional, cell-based.
Data set [17] concerns HepG2. The data set is described as follows: Cell cycle arrest in human HepG2 cells assessed as effect on Chk2 protein level in nucleus at 16 uM after 24 hrs by Western blot analysis. It counts as functional, cell-based.
The test system of data set [18] is HepG2. Kind of data set: Cell cycle arrest in human HepG2 cells assessed as effect on cytoplasmic Chk2 protein level at 16 uM after 24 hrs by Western blot analysis. It counts as functional, cell-based.
A short description of data set [19]: Cell cycle arrest in human L02 cells assessed as effect on Chk1 protein level in nucleus at 16 uM after 24 hrs by Western blot analysis. It counts as ADME, cell-based. The settings on record: l02, 24 h.
Data set [20] in a line: Cell cycle arrest in human L02 cells assessed as effect on cytoplasmic Chk1 protein level at 16 uM after 24 hrs by Western blot analysis. The note with it: l02, 24 h. It counts as ADME, cell-based.
A short description of data set [21]: Cell cycle arrest in human L02 cells assessed as effect on Chk2 protein level in nucleus at 16 uM after 24 hrs by Western blot analysis. It counts as ADME, cell-based. The note with it: l02, 24 h.
A short description of data set [22]: Cell cycle arrest in human L02 cells assessed as effect on cytoplasmic Chk2 protein level at 16 uM after 24 hrs by Western blot analysis. It counts as ADME, cell-based. The settings on record: l02, 24 h.
In data set [23] the target is Protein kinase C delta type (Homo sapiens) (UniProt Q05655). The data set is described as follows: Inhibition of PKCdelta phosphorylation at Ser643 in human HepG2 cells by Western blot analysis. It counts as cell-based.
Data set [24] has the same target. Kind of data set: Inhibition of PKCdelta phosphorylation at Ser643 in human L02 cells by Western blot analysis. It counts as cell-based.
Data set [25] has as its target PKC alpha and beta-2 (Homo sapiens) (UniProt P17252+P05771). Kind of data set: Inhibition of PKCalpha/beta2 phosphorylation at Thr 638/641 in human HepG2 cells by Western blot analysis. It counts as cell-based.
The target in data set [26] is Protein kinase C delta type (Homo sapiens) (UniProt Q05655). The data set is described as follows: Inhibition of PKCdelta phosphorylation at Thr505 in human L02 cells by Western blot analysis. It counts as cell-based.
Data set [27] concerns the target Protein kinase C iota type/zeta type (Homo sapiens) (UniProt P41743+Q05513). The data set is described as follows: Inhibition of PKCzeta/lambda phosphorylation at Thr410/403 in human HepG2 cells by Western blot analysis. It counts as cell-based.
The test system of data set [28] is HepG2. The data set is described as follows: Cytotoxicity against human HepG2 cells assessed as decrease in F-actin staining at 16 uM after 24 hrs using […] staining by confocal microscopy. It counts as functional, cell-based.

Protein kinase C iota type/zeta type (Homo sapiens), sequence (P41743 whole entry, looked up): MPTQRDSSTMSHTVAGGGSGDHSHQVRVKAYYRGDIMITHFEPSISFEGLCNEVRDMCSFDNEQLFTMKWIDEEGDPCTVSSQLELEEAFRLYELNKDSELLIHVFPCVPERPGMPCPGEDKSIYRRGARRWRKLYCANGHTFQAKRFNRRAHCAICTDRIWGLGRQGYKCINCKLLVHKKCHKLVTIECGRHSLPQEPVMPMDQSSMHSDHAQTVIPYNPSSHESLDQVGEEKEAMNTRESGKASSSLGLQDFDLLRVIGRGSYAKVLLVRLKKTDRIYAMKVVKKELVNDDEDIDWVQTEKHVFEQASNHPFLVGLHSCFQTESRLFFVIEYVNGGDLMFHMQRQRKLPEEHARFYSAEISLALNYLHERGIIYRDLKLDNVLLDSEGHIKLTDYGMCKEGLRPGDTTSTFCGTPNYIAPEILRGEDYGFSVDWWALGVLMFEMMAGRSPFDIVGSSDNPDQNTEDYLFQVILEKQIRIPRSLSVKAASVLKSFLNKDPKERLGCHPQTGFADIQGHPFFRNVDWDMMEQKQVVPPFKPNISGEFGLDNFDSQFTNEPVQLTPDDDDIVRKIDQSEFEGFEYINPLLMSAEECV
Protein kinase C iota type/zeta type (Homo sapiens), sequence (Q05513 whole entry, looked up): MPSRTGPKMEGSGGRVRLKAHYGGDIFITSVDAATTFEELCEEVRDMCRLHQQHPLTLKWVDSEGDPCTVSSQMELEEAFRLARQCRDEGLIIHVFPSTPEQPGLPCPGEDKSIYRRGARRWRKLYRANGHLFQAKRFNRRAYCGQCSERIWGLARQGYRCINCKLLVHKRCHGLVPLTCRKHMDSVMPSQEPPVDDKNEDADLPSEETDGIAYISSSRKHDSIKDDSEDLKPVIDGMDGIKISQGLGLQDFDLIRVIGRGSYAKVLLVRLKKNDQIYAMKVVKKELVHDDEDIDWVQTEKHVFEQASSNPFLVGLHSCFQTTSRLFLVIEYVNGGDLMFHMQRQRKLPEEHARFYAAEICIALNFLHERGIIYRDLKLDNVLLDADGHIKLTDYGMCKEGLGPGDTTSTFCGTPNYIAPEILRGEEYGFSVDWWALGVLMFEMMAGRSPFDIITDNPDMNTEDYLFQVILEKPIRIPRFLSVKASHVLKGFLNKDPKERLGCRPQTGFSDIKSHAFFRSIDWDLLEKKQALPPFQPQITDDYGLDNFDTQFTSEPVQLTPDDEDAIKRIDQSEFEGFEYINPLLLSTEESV
PKC alpha and beta-2 (Homo sapiens), sequence (P05771 whole entry, looked up): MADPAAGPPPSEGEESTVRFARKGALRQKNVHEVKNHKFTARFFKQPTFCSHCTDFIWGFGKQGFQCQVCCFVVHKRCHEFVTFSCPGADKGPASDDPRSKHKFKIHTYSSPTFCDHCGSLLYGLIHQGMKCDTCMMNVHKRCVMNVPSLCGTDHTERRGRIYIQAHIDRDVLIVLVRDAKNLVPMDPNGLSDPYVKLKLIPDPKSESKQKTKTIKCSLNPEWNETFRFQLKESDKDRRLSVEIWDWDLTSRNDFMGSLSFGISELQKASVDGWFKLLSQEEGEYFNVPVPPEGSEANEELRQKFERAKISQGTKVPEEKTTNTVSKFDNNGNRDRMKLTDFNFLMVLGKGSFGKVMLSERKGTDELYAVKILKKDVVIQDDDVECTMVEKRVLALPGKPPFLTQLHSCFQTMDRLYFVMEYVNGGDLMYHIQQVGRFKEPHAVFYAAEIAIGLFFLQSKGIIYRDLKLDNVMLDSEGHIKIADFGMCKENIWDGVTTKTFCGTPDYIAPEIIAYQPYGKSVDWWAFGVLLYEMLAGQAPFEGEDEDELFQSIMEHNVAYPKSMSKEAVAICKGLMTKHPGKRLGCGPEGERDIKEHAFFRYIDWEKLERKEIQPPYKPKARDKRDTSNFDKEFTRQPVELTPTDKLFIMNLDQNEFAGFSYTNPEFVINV

Regarding `O=Cc1cc(O)c2[nH]c3ccc(O)cc3c2c1`, the concentration for half-maximal inhibition (IC50) in the data set on HepG2 [1] is 135 µM.

Regarding `Cc1cc2c(cc1O)[nH]c1ccccc12`, the results for the half-inhibitory concentration (IC50) (with HepG2 [1]; in data set [2]) were 14.4 µM and 85.2 µM, respectively.

In the data set on HepG2 [1], `COc1cc(=O)n(C)c2ccccc12` yielded an IC50 of over 160 µM.

In the case of `COC(=O)c1ccc2[nH]c3ccccc3c2c1`, it took 36.9 µM to reach half-maximal inhibition in the data set with HepG2 [1] (IC50).

The molecule `COc1ccc2c(c1)[nH]c1cc(O)c(C=O)cc12` had an IC50 in the data set on HepG2 [1] of 28.6 µM.

Consider `CC(=O)c1c(O)c(C)c(O)c(Cc2c(O)c3c(c(C(=O)/C=C/c4ccccc4)c2O)OC(C)(C)C=C3)c1O`, for which the inhibition entry in data set [3] and in data set [4] was “Active” in each case.

With `COC(=O)c1cc(O)c2[nH]c3ccccc3c2c1` [CLAUSINE E], the 50% inhibitory concentration (IC50) was 15.8 µM in the data set with HepG2 [1]; over 160 µM in data set [2]; 13.3 µM with HeLa; 71.6 µM in the data set with T98G; 16.9 µM in data set [7]; 37.1 µM in the data set with MDA-MB-231. In addition, the “growth inhibition (GI)” value in the data set with HepG2 [5] and in the data set on HepG2 [6] was “Active” throughout. Also, the outcome in the data set on HepG2 [8], in the data set on HepG2 [15], in the data set on HepG2 [16] and in the data set with HepG2 [28] was Active. Moreover, the inhibition result in data set [9] is “Active”. In addition, the inhibition result in data set [10], in data set [24], in data set [25], in data set [26] and in data set [27] was “inactive” in each case. For the same molecule, the result in the data set with HepG2 [11], in the data set on HepG2 [17] and with HepG2 [18] was inactive. Besides, the Activity with HepG2 [12] was 55.9%; in the data set on HepG2 [13] it was 31.1%; with HepG2 [14], 13.1%; in data set [19] it was “Non-toxic”; in data set [20], “Non-toxic”; in [21] it was “Non-toxic”. Moreover, the Activity entry in [22] was “Non-toxic”. The inhibition result in [23] is “Dose-dependent effect”.

The molecule `COc1ccc2c(c1)[nH]c1cc(OC)c(C(=O)O)cc12` [CLAUSINE K] returned an IC50 with HepG2 [1] of 24.4 µM.

Molecule `O=Cc1cc2c(cc1O)[nH]c1cc(O)ccc12` [CLAUSINE O] came in with an IC50 in the data set with HepG2 [1] of 32.8 µM.

On to `COC(=O)c1cc2c(cc1OC)[nH]c1cc(OC)ccc12` [CLAUSZOLINE C], for which the IC50 in the data set on HepG2 [1] was over 160 µM.

Turning to `COc1ccc2c(c1)[nH]c1ccc(C=O)cc12` [CLAUSZOLINE K], the 50% inhibitory concentration (IC50) is 4.23 µM in the data set with HepG2 [1] and 72.5 µM in data set [2]. Also, the “growth inhibition (GI)” value in the data set with HepG2 [5] and in the data set on HepG2 [6] was “Active” each time.

In the data set with HepG2 [1], `COc1c2ccccc2nc2occc12` [DICTAMNINE] had a half-inhibitory concentration (IC50) of 55.2 µM.

Regarding `COc1c2ccoc2nc2c(OC)cccc12` [GAMMA-FAGARINE], the half-inhibitory concentration (IC50) in the data set with HepG2 [1] is over 160 µM.

Turning to `Cc1cc2c([nH]c3ccccc32)c2c1OC(C)(C)C=C2` [GRINIMIBINE], in the data set with HepG2 [1], the 50% inhibitory concentration (IC50) is over 160 µM.

Molecule `COc1ccc2c(c1)[nH]c1cc(OC)c(C=O)cc12` [LANSINE] showed an IC50 with HepG2 [1] of 102 µM.

For `O=Cc1cc2c(cc1O)[nH]c1ccccc12` [MUKONAL], the IC50 in the data set on HepG2 [1] came to 65.9 µM.

Turning to `COC(=O)c1cc2c(cc1O)[nH]c1ccccc12` [MUKONIDINE], the half-inhibitory concentration (IC50) with HepG2 [1] was over 160 µM.

For the origin of these results see ChEMBL document CHEMBL1926516, “Induction of cell cycle arrest by the carbazole alkaloid Clauszoline-I from Clausena vestita D. D. Tao via inhibition of the PKCδ phosphorylation” (Eur J Med Chem, 2012).
